# Read-outs that look alike come from different tables or passages of the source.
# How the values were obtained:
# [1] = system: NCI-H929 human multiple myeloma tumor cell line; assay: NCI-H929 cell viability assay (CellTiter-Glo, 24 hours); assay type: cell-based
# GST-MCL-1 = GST-MCL-1 (Homo sapiens, UniProt Q07820); assay: TR-FRET MCL-1 binding assay (competition with probe F-Bak)
# Procedure: Tb-anti-GST antibody was purchased from Invitrogen (Catalog No. PV4216).
# For the assay, an acoustic dispenser was used to prepare dilution series from 10 mM test compounds in 100% DMSO and directly transfer 160 nL into low volume 384-well assay plates. 8 μL of a protein/probe/antibody mix was then added to each well resulting in final concentrations listed below: • Test compound: 11 three-fold dilutions beginning at 25 μM
# The samples were then mixed on a shaker for 1 minute and incubated for an additional 2 hours at room temperature. For each assay plate, a probe/antibody and protein/antibody/probe mixture were included as a negative and a positive control, respectively. Fluorescence was measured on the Envision (Perkin Elmer) using a 340/35 nm excitation filter and 520/525 (F-Bak) and 495/510 nm (Tb-labeled anti-his antibody) emission filters. […] The TR-FRET assay can be performed in the presence of varying concentrations of human serum (HS) or fetal bovine serum (FBS). Compounds were tested both without HS and in the presence of 10% HS.
# [2] = system: AMO-1 human multiple myeloma tumor cell line; assay: AMO-1 cell viability assay (CellTiter-Glo, 24 hours); assay type: cell-based
# [3] = Homo sapiens, NCI-H929, 24 h, read-out: H929 Viability IC50 (μM, 10% FBS), 10% FBS, 24 hours of compound treatment
# [4] = MCL-1 Binding Ki (nM, 10% HS), in the presence of 10% HS (human serum)
# [5] = without HS, read-out: MCL-1 Binding Ki
# [6] = Homo sapiens, AMO1, 24 h, read-out: AMO-1 Viability IC50 (μM, 10% FBS), 10% FBS, 24 hours of compound treatment
# Chain of GST-MCL-1 (Q07820 whole entry): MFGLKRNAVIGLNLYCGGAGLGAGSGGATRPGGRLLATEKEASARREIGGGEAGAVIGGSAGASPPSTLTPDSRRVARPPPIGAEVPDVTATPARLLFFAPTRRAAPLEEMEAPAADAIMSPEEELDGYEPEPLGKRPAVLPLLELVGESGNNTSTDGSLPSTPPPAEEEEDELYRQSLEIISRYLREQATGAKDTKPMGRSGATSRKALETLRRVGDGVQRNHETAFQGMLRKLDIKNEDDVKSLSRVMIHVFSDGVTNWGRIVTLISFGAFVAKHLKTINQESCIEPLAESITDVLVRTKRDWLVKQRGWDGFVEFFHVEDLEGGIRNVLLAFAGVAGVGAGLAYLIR
Compound,"IC50 [1, 3] [µM]",Ki (GST-MCL-1; [4]) [nM],Ki (GST-MCL-1; [5]) [nM],"IC50 [2, 6] [µM]","IC50 ([1]; read-out: H929 Viability IC50 (μM, 10% FBS), 10% FBS, 24 hours of compound treatment) [µM]","IC50 ([2]; read-out: AMO-1 Viability IC50 (μM, 10% FBS), 10% FBS, 24 hours of compound treatment) [µM]"
"COCCOCCOCCC1CCN(c2nccc(COc3ccc4cc3C[C@H](C(=O)O)Oc3ncnc5sc(-c6ccc(F)cc6)c(c35)-c3c(C)c(Cl)c(c(Cl)c3C)O[C@H](CN3CCN(C)CC3)CO4)n2)CC1 [Example 52, (7R,16R)-19,23-dichloro-1-(4-fluorophenyl)-10-{[2-(4-{2-[2-(2-methoxyethoxy)ethoxy]ethyl}piperidin-1-yl)pyrimidin-4-yl]methoxy}-20,22-dimethyl-16-[(4-methylpiperazin-1-yl)methyl]-7,8,15,6-tetrahydro-18,21-etheno-9,13-(metheno)-6,14,17-trioxa-2-thia-3,5-diazacyclononadeca[1,2,3-cd]indene-7-carboxylic Acid]",0.00269,3.31,0.348,0.000648,,
"Cc1c(Cl)c2c(Cl)c(C)c1-c1c(-c3ccc(F)cc3)sc3ncnc(c13)O[C@@H](C(=O)O)Cc1cc(ccc1OCc1ccnc(-c3ccc(OCCN4CCP(C)(=O)CC4)cc3)n1)OC[C@@H](CN1CCN(C)CC1)O2 [Example 71, (7R,16R)-19,23-dichloro-1-(4-fluorophenyl)-20,22-dimethyl-10-[(2-{4-[2-(4-methyl-4-oxo-1, 4λ^5-azaphosphinan-1-yl)ethoxy]phenyl}pyrimidin-4-yl)methoxy]-16-[(4-methylpiperazin-1-yl)methyl]-7,8,15,16-tetrahydro-18,21-etheno-13,9-(metheno)-6,14,17-trioxa-2-thia-3,5-diazacyclononadeca[1,2,3-cd]indene-7-carboxylic Acid]",0.00851,0.106,0.039,0.00468,,
"Cc1c2ccc(c1Cl)O[C@H](CN1CCN(C)CC1)COc1ccc(OCc3ccnc(-c4ccccc4C(=O)O)n3)c(c1)C[C@H](C(=O)O)Oc1ncnc3sc(-c4ccc(F)cc4)c-2c13 (atropisomer, axis not shown) [Example 19, (7R,16R)-10-{[2-(2-carboxyphenyl)pyrimidin-4-yl]methoxy}-19-chloro-1-(4-fluorophenyl)-20-methyl-16-[(4-methylpiperazin-1-yl)methyl]-7,8,15,16-tetrahydro-18,21-etheno-13,9-(metheno)-6,14,17-trioxa-2-thia-3,5-diazacyclononadeca[1,2,3-cd]indene-7-carboxylic Acid]",0.365,0.069,0.006,0.0963,,
"CO[C@@H]1CO[C@H]2[C@@H]1OC[C@H]2OCCOCCOc1nccc(COc2ccc3cc2C[C@H](C(=O)O)Oc2ncnc4sc(-c5ccc(F)cc5)c(c24)-c2c(C)c(Cl)c(c(Cl)c2C)O[C@H](CN2CCN(C)CC2)CO3)n1 [Example 133, (7R,16R)-19,23-dichloro-1-(4-fluorophenyl)-10-({2-[2-(2-{[(3R,3aR,6R,6aR)-6-methoxyhexahydrofuro[3,2-b]furan-3-yl]oxy}ethoxy)ethoxy]pyrimidin-4-yl}methoxy)-20,22-dimethyl-16-[(4-methylpiperazin-1-yl)methyl]-7,8,15,16-tetrahydro-18,21-etheno-13,9-(metheno)-6,14,17-trioxa-2-thia-3,5-diazacyclononadeca[1,2,3-cd]indene-7-carboxylic Acid]",0.00879,0.168,0.044,0.00324,,
"COCCOCCOCCOCCOCC1(F)CC=C(c2nccc(COc3ccc4cc3C[C@H](C(=O)O)Oc3ncnc5sc(-c6ccc(F)cc6)c(c35)-c3c(C)c(Cl)c(c(Cl)c3C)O[C@H](CN3CCN(C)CC3)CO4)n2)CC1 (single isomer, unassigned) [Example 114, (7R,16R)-19,23-dichloro-10-({2-[(4S*)-4-fluoro-4-(2,5,8,11,14-pentaoxapentadecan-1-yl)cyclohex-1-en-1-yl]pyrimidin-4-yl}methoxy)-1-(4-fluorophenyl)-20,22-dimethyl-16-[(4-methylpiperazin-1-yl)methyl]-7,8,15,16-tetrahydro-18,21-etheno-13,9-(metheno)-6,14,17-trioxa-2-thia-3,5-diazacyclononadeca[1,2,3-cd]indene-7-carboxylic Acid]",,0.15,0.018,,0.000331,0.000197
"COCCOCCOCCOCCO[C@H]1CC[C@H](c2nccc(COc3ccc4cc3C[C@H](C(=O)O)Oc3ncnc5sc(-c6ccc(F)cc6)c(c35)-c3c(C)c(Cl)c(c(Cl)c3C)O[C@H](CN3CCN(C)CC3)CO4)n2)CC1 [Example 69, (7R,16R)-19,23-dichloro-1-(4-fluorophenyl)-20,22-dimethyl-16-[(4-methylpiperazin-1-yl)methyl]-10-[(2-{(1r,4r)-4-[(2,5,8,11-tetraoxatridecan-13-yl)oxy]cyclohexyl}pyrimidin-4-yl)methoxy]-7,8,15,16-tetrahydro-18,21-etheno-13,9-(metheno)-6,14,17-trioxa-2-thia-3,5-diazacyclononadeca[1,2,3-cd]indene-7-carboxylic Acid]",0.000615,0.053,0.012,0.000302,,
"COCCOCCOCCOCc1ccc(-c2nccc(COc3ccc4cc3C[C@H](C(=O)O)Oc3ncnc5sc(-c6ccc(F)cc6)c(c35)-c3c(C)c(Cl)c(c(Cl)c3C)O[C@H](CN3CCN(C)CC3)CO4)n2)cc1COCCOCCOCCOC [Example 152, (7R,16R)-10-({2-[3,4-bis(2,5,8,11-tetraoxadodecan-1-yl)phenyl]pyrimidin-4-yl}methoxy)-19,23-dichloro-1-(4-fluorophenyl)-20,22-dimethyl-16-[(4-methylpiperazin-1-yl)methyl]-7,8,15,16-tetrahydro-18,21-etheno-13,9-(metheno)-6,14,17-trioxa-2-thia-3,5-diazacyclononadeca[1,2,3-cd]indene-7-carboxylic Acid]",0.00593,0.041,0.011,0.00732,,
"Cc1c2ccc(c1Cl)O[C@H](CN1CCN(C)CC1)COc1ccc(OCc3ccnc(-c4ccc(OC[C@H](O)CO)cc4)n3)c(c1)C[C@H](C(=O)O)Oc1ncnc3sc(-c4ccc(F)cc4)c-2c13 (atropisomer, axis not shown) [Example 18, (7R,16R,21S)-19-chloro-10-[(2-{4-[(2R)-2,3-dihydroxypropoxy]phenyl}pyrimidin-4-yl)methoxy]-1-(4-fluorophenyl)-20-methyl-16-[(4-methylpiperazin-1-yl)methyl]-7,8,15,16-tetrahydro-18,21-etheno-13,9-(metheno)-6,14,17-trioxa-2-thia-3,5-diazacyclononadeca[1,2,3-cd]indene-7-carboxylic Acid]",0.00531,0.269,0.011,0.00295,,
"Cc1c(Cl)c2c(Cl)c(C)c1-c1c(-c3ccc(F)cc3)sc3ncnc(c13)O[C@@H](C(=O)O)Cc1cc(ccc1OCc1ccnc(N3CCOCCOCCOCCOCC3)n1)OC[C@@H](CN1CCN(C)CC1)O2 [Example 115, (7R,16R)-19,23-dichloro-1-(4-fluorophenyl)-20,22-dimethyl-16-[(4-methylpiperazin-1-yl)methyl]-10-{[2-(1,4,7,10-tetraoxa-13-azacyclopentadecan-13-yl)pyrimidin-4-yl]methoxy}-7,8,15,16-tetrahydro-18,21-etheno-13,9-(metheno)-6,14,17-trioxa-2-thia-3,5-diazacyclononadeca[1,2,3-cd]indene-7-carboxylic Acid]",0.00113,0.862,0.093,0.000593,,
"COCCOCCOCC1(F)CC=C(c2nccc(COc3ccc4cc3C[C@H](C(=O)O)Oc3ncnc5sc(-c6ccc(F)cc6)c(c35)-c3c(C)c(Cl)c(c(Cl)c3C)O[C@H](CN3CCN(C)CC3)CO4)n2)CC1 (single isomer, unassigned) [Example 86, (7R,16R)-19,23-dichloro-10-({2-[(4S*)-4-fluoro-4-{[2-(2-methoxyethoxy)ethoxy]methyl}cyclohex-1-en-1-yl]pyrimidin-4-yl}methoxy)-1-(4-fluorophenyl)-20,22-dimethyl-16-[(4-methylpiperazin-1-yl)methyl]-7,8,15,16-tetrahydro-18,21-etheno-13,9-(metheno)-6,14,17-trioxa-2-thia-3,5-diazacyclononadeca[1,2,3-cd]indene-7-carboxylic Acid]",0.000258,0.102,0.008,0.000105,,
"COCCOCCOCCOCCOCCOCC1(c2nccc(COc3ccc4cc3C[C@H](C(=O)O)Oc3ncnc5sc(-c6ccc(F)cc6)c(c35)-c3c(C)c(Cl)c(c(Cl)c3C)O[C@H](CN3CCN(C)CC3)CO4)n2)CCC1 [Example 59, (7R,16R)-19,23-dichloro-1-(4-fluorophenyl)-10-({2-[1-(2,5,8,11,14,17-hexaoxaoctadecan-1-yl)cyclobutyl]pyrimidin-4-yl}methoxy)-20,22-dimethyl-16-[(4-methylpiperazin-1-yl)methyl]-7,8,15,16-tetrahydro-18,21-etheno-13,9-(metheno)-6,14,17-trioxa-2-thia-3,5-diazacyclononadeca[1,2,3-cd]indene-7-carboxylic Acid]",0.000848,0.122,0.047,0.000686,,

# Source: patent US20250313572A1, “MACROCYCLIC MCL-1 INHIBITORS AND METHODS OF USE” (AbbVie Inc., priority 2017, published 2025)
